Measured values as given in patent publication US5198427A, “Natural intense sweeteners” (Research Corporation Technologies, Inc., priority 1990, dated 1993).
Read-outs that look alike come from different tables or passages of the source.

Key:
[1] = Acute toxicity in mice, single oral dose; type: in vivo, male Swiss-Webster mice; details: for Average body weight of test animals, Day 0 / Average body weight of test animals, Day 1 / Average body weight of test animals, Day 3 / Average body weight of test animals, Day 7 / Average body weight of test animals, Day 14: 1 g/kg oral intubation; for Average body weight of test animals, Day 0: day 0 (prior to administration); for t (body weight, test vs control), Day 0 / t (body weight, test vs control), Day 1 / t (body weight, test vs control), Day 3 / t (body weight, test vs control), Day 7 / t (body weight, test vs control), Day 14: 1 g/kg oral, 0.95 confidence
Description: The sweet isolates, abrusosides A-D, are each tested for acute toxicity in mice. Experiments are carried out with male Swiss-Webster mice (6-8 weeks old), that are housed in temperature-controlled rooms with a 12-hr light/dark cycle, and allowed free access to water and food. After acclimatization for three days, groups of 10 animals receive a single 1 g/kg body weight dose of either abrusoside A, B, C, or D by oral intubation. Test materials are suspended in 1% aqueous sodium carboxymethylcellulose. A control group treated with only 1% sodium caroboxymethylcellulose is also included in the experiment. In all experiments, no incidence of mortality occurred for up to 14 days after dosing. Animals are examined for body weight variations on days 0 (prior to administration), 1, 3, 7, and 14. Body weight variations between treated and control groups are analyzed by one-way analysis of variance using an appropriate computer program. It may be seen from these tables that no significant differences in body weight variation occurred between each of the four test compounds and the controls, when assessed for a fourteen day period following compound administration.

[2] = Sensory evaluation by human taste panel; details: for Sweetness relative to a 2% aqueous solution of sucrose: ammonium salts, in water, human taste panel; for Sweetness relative to 2% sucrose: three-person panel, dilute ammonium hydroxide solution diluted with water
Description: Abrusoside A (4 mg) is dissolved in 0.033N ammonium hydroxide solution (0.2 ml), to which is added 1.8 ml of water to yield the equivalent of a 0.2 % w/v solution of abrusoside A. Aliquots (0.2 ml) of this solution are diluted with 0.4, 0.8, 1.3, and 1.8 ml water, respectively. The diluted solutions is tasted sequentially, in order to judge the intensity of sweetness equivalent to that of a 2% w/v aqueous sucrose solution. Similar procedures are used in the sensory evaluation of […], expect that the concentrations of the ammonium hydroxide solutions used are 0.05N for abrusosides B and C, and 0.025N for abrusoside D. These sensory experiments are performed by a small panel consisting of three persons.

[3] = tested on: Salmonella typhimurium strain TM677; type: cell-based; details: DMSO
Description: Salmonella typhimurium strain TM677, carrying the "R-factor" plasmid pKM101, is used for the assessment of mutagenic activity. Mutagenic assays are conducted on abrusosides A, B, C, and D, both in the absence and presence of a metabolic activating agent, obtained from a 9,000 × g supernatant fraction from the livers of […] rats. The following protocols are used in this procedure.
Male Sprague-Dawley rats (body weight 100-120 g) were housed in air-conditioned quarters, with a 12 hr/12 hr light-dark cycle, and are given food and water ad libitum. The rats (groups of 10) are given single intraperitoneal injections of Aroclor 1254 (400 mg/kg) in corn oil. Four days after the treatment with Aroclor 1254, the rats are sacrificed by decapitation. Their livers are immediately excised, rinsed several times with cold 0.14 M NaCl, minced, and homogenized with 3 volumes (v/w) of 50 mM Tris HCl, pH 5, containing 0.14 M KCl, using a glass homogenizing vessel and a motor-driven Teflon pestle. The homogenate is filtered through cheese-cloth, and centrifuged at 9,000 g for 20 minutes to yield an S-9 fraction. The isolation procedures described above are conducted at 0°-4° C., and the isolated S-9 fraction is stored in small aliquots in liquid nitrogen.
Duplicate 0.98-ml reaction mixtures containing 0.1 mg of NADP^+, 1.0 mg of glucose-6-phosphate, 0.8 units of glucose-6-phosphate dehydrogenase, 0.67 mg of MgCl2, the S-9 fraction, and approximately 7×10^6 bacteria in logarithmic phase, are prepared in minimal essential medium. When metabolic activation is not required, only bacteria and minimal essential medium are mixed.
After addition of each test substance dissolved in 20 ul of DMSO, the mixtures are slowly rotated at 37° C. for 2 hours. Each reaction mixture is then quenched by addition of 4 ml phosphate-buffered saline. The bacteria are recovered by centrifugation, resuspended, diluted as appropriate, and plated, in triplicate, in the presence or absence of 8-azaguanine. Plates are scored […] on plates containing 8-azaguanine divided by the average number of plates not containing azaguanine, after correcting for dilution factors. The latter value is used to define the percentage of bacteria surviving the treatment, relative to a control in which only an equivalent amount of solvent had been added.
The spontaneous mutant fraction for this assay is 7.4±5×10^-5 (n=145). A compound is said to cause significant mutation if the induced mutant fraction is greater than or equal to two times the spontaneous mutant fraction.

[4] = cited from earlier work
[5] = 2.5 mg/ml, activating system none
[6] = 5.0 mg/ml, activating system none

Compound | Average body weight of test animals, Day 0 [1] | Average body weight of test animals, Day 1 [1] | Average body weight of test animals, Day 3 [1] | Average body weight of test animals, Day 7 [1] | Average body weight of test animals, Day 14 [1] | t (body weight, test vs control), Day 0 [1] | t (body weight, test vs control), Day 1 [1] | t (body weight, test vs control), Day 3 [1] | t (body weight, test vs control), Day 7 [1] | t (body weight, test vs control), Day 14 [1] | Sweetness relative to a 2% aqueous solution of sucrose [2] | Sweetness relative to 2% sucrose [2] | % Survival ([3]; 2.5 mg/ml, Aroclor S-9) | Mutant Fraction ([3]; 2.5 mg/ml, Aroclor S-9) | % Survival [3, 5] | Mutant Fraction [3, 5] | % Survival ([3]; 5.0 mg/ml, Aroclor S-9) | Mutant Fraction ([3]; 5.0 mg/ml, Aroclor S-9) | % Survival [3, 6] | Mutant Fraction [3, 6] | other results
CC1=CC[C@@H]([C@@H](C)[C@H]2CC[C@@]3(C)[C@@H]4CC[C@H]5[C@](C)(C(=O)O)[C@@H](O[C@@H]6O[C@H](CO)[C@@H](O)[C@H](O)[C@H]6O)CC[C@@]56C[C@@]46CC[C@]23C)OC1=O [Abrusoside A] | 23.4 g | 23.7 g | 24.4 g | 25.4 g | 26.1 g | 0.292 | 0.153 | 0.368 | 0.000 | 0.000 | 30 x | 30 times | 100% | 8.1 × 10^5 | 100% | 7.9 × 10^5 | 100% | 7.3 × 10^5 | 100% | 8.1 × 10^5 | 
COC(=O)[C@H]1O[C@@H](O[C@H]2[C@H](O[C@H]3CC[C@]45C[C@]46CC[C@]4(C)[C@@H]([C@H](C)[C@@H]7CC=C(C)C(=O)O7)CC[C@@]4(C)[C@@H]6CC[C@H]5[C@]3(C)C(=O)O)O[C@H](CO)[C@@H](O)[C@@H]2O)[C@H](O)[C@@H](O)[C@@H]1O [Abrusoside B] | 23.5 g | 23.7 g | 23.9 g | 25.0 g | 26.4 g | 0.432 | 0.330 | 0.458 | 0.576 | 0.282 | 100 x | 100 times | 100% | 7.2 × 10^5 | 100% | 8.7 × 10^5 | 100% | 8.2 × 10^5 | 100% | 7.3 × 10^5 | 
CC1=CC[C@@H]([C@@H](C)[C@H]2CC[C@@]3(C)[C@@H]4CC[C@H]5[C@](C)(C(=O)O)[C@@H](O[C@@H]6O[C@H](CO)[C@@H](O)[C@H](O)[C@H]6O[C@@H]6O[C@H](CO)[C@@H](O)[C@H](O)[C@H]6O)CC[C@@]56C[C@@]46CC[C@]23C)OC1=O [Abrusoside C] | 23.4 g | 23.8 g | 24.3 g | 25.3 g | 26.9 g | 0.282 | 0.371 | 0.302 | 0.129 | 0.930 | 50 x | 50 times | 100% | 7.7 × 10^5 | 100% | 8.1 × 10^5 | 100% | 6.7 × 10^5 | 100% | 7.6 × 10^5 | 
CC1(C)[C@@H](O[C@H]2O[C@H](C(=O)O)[C@@H](O)[C@H](O)[C@H]2O[C@@H]2O[C@H](C(=O)O)[C@@H](O)[C@H](O)[C@H]2O)CC[C@]2(C)[C@H]3C(=O)C=C4[C@@H]5C[C@@](C)(C(=O)O)CC[C@]5(C)CC[C@@]4(C)[C@]3(C)CC[C@@H]12 [Glycyrrhizin] |  |  |  |  |  |  |  |  |  |  |  |  |  |  |  |  |  |  |  |  | Retention of sodium, chlorine and water ([4]; humans): can cause abnormal retention of sodium, chlorine and water in humans; Adrenocorticomimetic activity ([4]; mimics the effects of the adrenal cortex): known adrenocorticomimetic activity
Abrusoside D | 24.1 g | 24.4 g | 24.9 g | 25.7 g | 27.0 g | 1.199 | 1.140 | 0.991 | 0.383 | 0.812 | 75 x | 75 times | 100% | 11.8 × 10^5 | 100% | 16.7 × 10^5 | 100% | 11.0 × 10^5 | 100% | 15.3 × 10^5 | Duration of lingering sweetness ([2]; 0.04% w/v): about 30 minutes
